*1 amine or outer side, *2 acyl side, *3 side chain or, on linkers, in order; H or OH if unused. Where a SMILES comes first, the peptide text is derived from it. Bridges are numbered along the chain shown (N, C = ends). [ ]: non-standard residue; d: D form. ξ: configuration not given here. Trp(1-CH2COOH) = N[C@@H](Cc1cn(CC(=O)O)c2ccccc12)C(=O)O; Morpholine(3S-CO,6,6-Me2) = CC1(C)CN[C@H](C(=O)O)CO1; Phe(3,4,5-F3) = N[C@@H](Cc1cc(F)c(F)c(F)c1)C(=O)O; Phe(3,4-F2) = N[C@@H](Cc1ccc(F)c(F)c1)C(=O)O; Trp(1-Me) = Cn1cc(C[C@H](N)C(=O)O)c2ccccc21; Morpholine(3S-CO) = O=C(O)[C@@H]1COCCN1; d(cisHyp) = O=C(O)[C@H]1C[C@@H](O)CN1; Bta = N[C@@H](Cc1csc2ccccc12)C(=O)O; NMeY = CN[C@@H](Cc1ccc(O)cc1)C(=O)O; Hyp = O=C(O)[C@@H]1C[C@@H](O)CN1; NMeF = CN[C@@H](Cc1ccccc1)C(=O)O; X1 = O=C([C@H]1COCCN1[*:1])[*:2]; dHyp = O=C(O)[C@H]1C[C@H](O)CN1; NMehSer = CN[C@@H](CCO)C(=O)O; NMeNle = CCCC[C@H](NC)C(=O)O; Pip = O=C(O)[C@@H]1CCCCN1; hSer = N[C@@H](CCO)C(=O)O; NMeA = CN[C@@H](C)C(=O)O; Orn = NCCC[C@H](N)C(=O)O; Dab = NCC[C@H](N)C(=O)O; Dap = NC[C@H](N)C(=O)O; ξC = NC(CS)C(=O)O
molecular target: T1, Human PD-L1/PD-1 (Homo sapiens, UniProt Q9NZQ7); test: HTRF Human PD-L1/PD-1 binding assay (PD-1-Ig/PD-L1-His); conditions: PD-L1-His 10 nM, PD-1-Ig 20 nM; class symbol; read-out: HTRF Human PD-L1/PD-1 Binding Assay IC50 Range
T1 construct: TVMV protease cleavage site (C); made in house; host or cells: HEK293T cells
Outline: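 Truncated Fc-fused human PD-1 (aa 25-167) at 20 nM and His-tagged PD-L1 (aa 18-239) at 10 nM final are used, with peptides preincubated 15 min with PD-L1. Detection uses europium-cryptate anti-Ig and APC anti-His antibodies; 665/620 nm ratio.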

T1 sequence (Q9NZQ7 with tags, fused parts or gaps): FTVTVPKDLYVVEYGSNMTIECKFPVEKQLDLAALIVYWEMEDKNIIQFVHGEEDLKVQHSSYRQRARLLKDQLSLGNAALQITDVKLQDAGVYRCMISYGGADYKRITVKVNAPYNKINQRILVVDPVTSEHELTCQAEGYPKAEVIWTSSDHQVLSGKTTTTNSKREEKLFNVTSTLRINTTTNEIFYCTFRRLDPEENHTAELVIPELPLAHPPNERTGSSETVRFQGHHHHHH

Compound | IC50
CCCC[C@H]1C(=O)N2C[C@H](O)C[C@@H]2C(=O)N[C@@H](CC(=O)O)C(=O)N[C@@H](C(C)C)C(=O)N(C)[C@@H](Cc2ccccc2)C(=O)N[C@@H](CC(=O)O)C(=O)N2C[C@H](O)C[C@@H]2C(=O)N[C@@H](Cc2c[nH]c3ccccc23)C(=O)N[C@@H](Cc2ccc(O)cc2)C(=O)N[C@@H](CCC(N)=O)C(=O)N[C@H](C(=O)NCC(N)=O)CSCC(=O)N[C@@H](Cc2cc(F)c(F)c(F)c2)C(=O)N(C)[C@@H](Cc2ccccc2)C(=O)N1C [Example 9351] ({CH2CO}-[Phe(3,4,5-F3)][NMeF][NMeNle][d(cisHyp)]DV[NMeF]D[d(cisHyp)]WYQCG-NH2; thioether N-13) | 10 to 99.9 nM
CCCC[C@H]1C(=O)N2C[C@H](O)C[C@@H]2C(=O)N[C@@H](CC(=O)O)C(=O)N[C@@H](C(C)C)C(=O)N(C)[C@@H](Cc2ccccc2)C(=O)N[C@@H](CCC(N)=O)C(=O)N2C[C@H](O)C[C@@H]2C(=O)N[C@@H](Cc2c[nH]c3ccccc23)C(=O)N[C@@H](Cc2ccc(O)cc2)C(=O)N[C@@H](CCCN)C(=O)N[C@H](C(=O)NCC(N)=O)CSCC(=O)N[C@@H](Cc2ccc(F)c(F)c2)C(=O)N(C)[C@@H](Cc2ccccc2)C(=O)N1C [Example 9302] ({CH2CO}-[Phe(3,4-F2)][NMeF][NMeNle][d(cisHyp)]DV[NMeF]Q[d(cisHyp)]WY[Orn]CG-NH2; thioether N-13) | 1 to 9.9 nM
CCCC[C@H]1C(=O)N(C)[C@@H](CCCC)C(=O)N[C@@H](CCCNC(=N)N)C(=O)NC(C(=O)NCC(N)=O)CSCC(=O)N[C@@H](Cc2ccc(O)cc2)C(=O)N(C)[C@@H](C)C(=O)N[C@@H](CC(N)=O)C(=O)N2CCC[C@H]2C(=O)N[C@@H](CCO)C(=O)N[C@@H](CC(C)C)C(=O)N2C[C@H](O)C[C@H]2C(=O)N[C@@H](Cc2c[nH]c3ccccc23)C(=O)N[C@@H](CO)C(=O)N[C@@H](Cc2csc3ccccc23)C(=O)N1C (stereo partly drawn) [Example 9150] ({CH2CO}-Y[NMeA]NP[hSer]L[Hyp]WS[Bta][NMeNle][NMeNle]R[ξC]G-NH2; thioether N-14) | 1 to 9.9 nM
COCC[C@H]1C(=O)N2C[C@@H](O)C[C@@H]2C(=O)N[C@@H](CC(=O)O)C(=O)N[C@@H](C(C)C)C(=O)N(C)[C@@H](Cc2ccccc2)C(=O)N[C@@H](CCC(=O)O)C(=O)N2CCOC[C@@H]2C(=O)N[C@@H](Cc2c[nH]c3ccccc23)C(=O)N[C@@H](Cc2ccc(O)cc2)C(=O)N[C@@H](CCCN)C(=O)N[C@H](C(=O)NCC(N)=O)CSCC(=O)N[C@@H](Cc2cc(F)c(F)c(F)c2)C(=O)N(C)[C@@H](Cc2ccccc2)C(=O)N1C [Example 9268] ({CH2CO}-[Phe(3,4,5-F3)][NMeF][NMehSer](Me)[dHyp]DV[NMeF]E[X1]WY[Orn]CG-NH2; thioether N-13) | 1 to 9.9 nM
CCCC[C@H]1C(=O)N(C)[C@@H](CCCC)C(=O)N[C@@H](CCCNC(=N)N)C(=O)NC(C(=O)NCC(N)=O)CSCC(=O)N[C@@H](Cc2ccc(O)cc2)C(=O)N(C)[C@@H](C)C(=O)N[C@@H](CC(N)=O)C(=O)N2CCC[C@H]2C(=O)N[C@@H](CCO)C(=O)N[C@@H](CC(C)C)C(=O)N2CCC[C@H]2C(=O)N[C@@H](Cc2c[nH]c3ccccc23)C(=O)N[C@@H](CO)C(=O)N[C@@H](Cc2c[nH]c3ccccc23)C(=O)N1C (stereo partly drawn) [Example 9148] ({CH2CO}-Y[NMeA]NP[hSer]LPWSW[NMeNle][NMeNle]R[ξC]G-NH2; thioether N-14) | 1000 to 10000 nM
CCCC[C@H]1C(=O)N2CCC[C@@H]2C(=O)N[C@@H](CC(=O)O)C(=O)N[C@@H](C(C)C)C(=O)N(C)[C@@H](Cc2ccccc2)C(=O)N[C@@H](CCN)C(=O)N2CCOC[C@@H]2C(=O)N[C@@H](Cc2c[nH]c3ccccc23)C(=O)N[C@@H](Cc2ccc(O)cc2)C(=O)N[C@@H](CCN)C(=O)N[C@H](C(=O)NCC(N)=O)CSCC(=O)N[C@@H](Cc2cc(F)c(F)c(F)c2)C(=O)N(C)[C@@H](Cc2ccc(O)cc2)C(=O)N1C [Example 10623] ({CH2CO}-[Phe(3,4,5-F3)][NMeY][NMeNle][dP]DV[NMeF][Dab][X1]WY[Dab]CG-NH2; thioether N-13) | 1 to 9.9 nM

More lines, now with the values ahead:

IC50 | Compound
1 to 9.9 nM | CCCC[C@H]1C(=O)N(C)[C@@H](CCCC)C(=O)N[C@@H](CCC(=O)O)C(=O)N[C@H](C(=O)NCC(N)=O)CSCC(=O)N[C@@H](Cc2ccc(O)cc2)C(=O)N(C)[C@@H](C)C(=O)N[C@@H](CC(N)=O)C(=O)N2CCC[C@H]2C(=O)N[C@@H](CO)C(=O)N[C@@H](CCC(N)=O)C(=O)N2C[C@H](O)C[C@H]2C(=O)N[C@@H](Cc2c[nH]c3ccccc23)C(=O)N[C@@H](CO)C(=O)N[C@@H](Cc2c[nH]c3ccccc23)C(=O)N1C [Example 5204] ({CH2CO}-Y[NMeA]NPSQ[Hyp]WSW[NMeNle][NMeNle]ECG-NH2; thioether N-14)
10 to 99.9 nM | CCCC[C@H]1C(=O)N(C)[C@@H](CCCC)C(=O)N[C@@H](CC(C)C)C(=O)N[C@H](C(=O)NCC(N)=O)CSCC(=O)N[C@@H](Cc2ccc(O)cc2)C(=O)N(C)[C@@H](C)C(=O)N[C@@H](CC(=O)O)C(=O)N2CCC[C@H]2C(=O)N[C@@H](Cc2cnc[nH]2)C(=O)N[C@@H](CCC(N)=O)C(=O)N2C[C@H](O)C[C@H]2C(=O)N[C@@H](Cc2c[nH]c3ccccc23)C(=O)N[C@@H](CCN)C(=O)N[C@@H](Cc2cn(CC(=O)O)c3ccccc23)C(=O)N1C [Example 6416] ({CH2CO}-Y[NMeA]DPHQ[Hyp]W[Dab][Trp(1-CH2COOH)][NMeNle][NMeNle]LCG-NH2; thioether N-14)
1 to 9.9 nM | CCCC[C@H]1C(=O)N(C)[C@@H](CCCC)C(=O)N[C@@H](CCC(=O)O)C(=O)N[C@H](C(=O)NCC(N)=O)CSCC(=O)N[C@@H](Cc2ccc(O)cc2)C(=O)N2CCOC[C@H]2C(=O)N[C@@H](CC(=O)O)C(=O)N2CCC[C@H]2C(=O)N[C@@H](Cc2c[nH]cn2)C(=O)N[C@@H](CCC(N)=O)C(=O)N2C[C@H](O)C[C@H]2C(=O)N[C@@H](Cc2c[nH]c3ccccc23)C(=O)N[C@@H](CO)C(=O)N[C@@H](Cc2c[nH]c3ccccc23)C(=O)N1C [Example 1515] ({CH2CO}-Y[Morpholine(3S-CO)]DPHQ[Hyp]WSW[NMeNle][NMeNle]ECG-NH2; thioether N-14)
10 to 99.9 nM | CCCC[C@H]1C(=O)N(C)[C@@H](CCCC)C(=O)N[C@@H](CCCNC(=N)N)C(=O)NC(C(=O)NCC(N)=O)CSCC(=O)N[C@@H](Cc2ccc(O)cc2)C(=O)N(C)[C@@H](C)C(=O)N[C@@H](CC(N)=O)C(=O)N2CCC[C@H]2C(=O)N[C@@H](CO)C(=O)N[C@@H](CO)C(=O)N2C[C@H](O)C[C@H]2C(=O)N[C@@H](Cc2c[nH]c3ccccc23)C(=O)N[C@@H](CO)C(=O)N[C@@H](Cc2csc3ccccc23)C(=O)N1C (stereo partly drawn) [Example 10016] ({CH2CO}-Y[NMeA]NPSS[Hyp]WS[Bta][NMeNle][NMeNle]R[ξC]G-NH2; thioether N-14)
1 to 9.9 nM | CCCC[C@H]1C(=O)N(C)[C@@H](CCCC)C(=O)N[C@H](C)C(=O)N[C@H](C(=O)NCC(N)=O)CSCC(=O)N[C@@H](Cc2ccc(O)cc2)C(=O)N(C)[C@@H](C)C(=O)N[C@@H](CC(N)=O)C(=O)N2CCC[C@H]2C(=O)N[C@@H](Cc2c[nH]cn2)C(=O)N[C@@H](CCC(=O)O)C(=O)N2C[C@H](O)C[C@H]2C(=O)N[C@@H](Cc2c[nH]c3ccccc23)C(=O)N[C@@H](CCN)C(=O)N[C@@H](Cc2csc3ccccc23)C(=O)N1C [Example 5159] ({CH2CO}-Y[NMeA]NPHE[Hyp]W[Dab][Bta][NMeNle][NMeNle][dA]CG-NH2; thioether N-14)
1 to 9.9 nM | CCCC[C@H]1C(=O)N(C)[C@@H](CCCC)C(=O)N[C@@H](CCCN)C(=O)N[C@H](C(=O)NCC(N)=O)CSCC(=O)N[C@@H](Cc2ccc(OC)cc2)C(=O)N(C)[C@@H](C)C(=O)N[C@@H](CC(N)=O)C(=O)N2CCC[C@H]2C(=O)N[C@@H](Cc2cnc[nH]2)C(=O)N[C@@H](CCC(=O)O)C(=O)N2C[C@H](O)C[C@H]2C(=O)N[C@@H](Cc2c[nH]c3ccccc23)C(=O)N[C@@H](CC(=O)O)C(=O)N[C@@H](Cc2c[nH]c3ccccc23)C(=O)N1C [Example 7097] ({CH2CO}-Y(Me)[NMeA]NPHE[Hyp]WDW[NMeNle][NMeNle][Orn]CG-NH2; thioether N-14)
1000 to 10000 nM | CCCC[C@H]1C(=O)N(C)[C@@H](CCCC)C(=O)N[C@@H](CCC(=O)O)C(=O)N[C@H](C(=O)NCC(N)=O)CSCC(=O)N[C@@H](Cc2ccc(OC)cc2)C(=O)N(C)[C@@H](C)C(=O)N[C@@H](CCN)C(=O)N2CCC[C@H]2C(=O)N[C@@H](Cc2cnc[nH]2)C(=O)N[C@@H](CCCCN)C(=O)N2C[C@H](O)C[C@H]2C(=O)N[C@@H](Cc2c[nH]c3ccccc23)C(=O)N[C@@H](CC(=O)O)C(=O)N[C@@H](Cc2c[nH]c3ccccc23)C(=O)N1C [Example 7126] ({CH2CO}-Y(Me)[NMeA][Dab]PHK[Hyp]WDW[NMeNle][NMeNle]ECG-NH2; thioether N-14)
1 to 9.9 nM | CCCC[C@H]1C(=O)N(C)[C@@H](CCCC)C(=O)N[C@@H](CCC(=O)O)C(=O)N[C@H](C(=O)NCC(N)=O)CSCC(=O)N[C@@H](Cc2ccc(O)cc2)C(=O)N2CCCC[C@H]2C(=O)N[C@@H](CC(=O)O)C(=O)N2CCC[C@H]2C(=O)N[C@@H](Cc2cnc[nH]2)C(=O)N[C@@H](CCC(=O)O)C(=O)N2C[C@H](O)C[C@H]2C(=O)N[C@@H](Cc2c[nH]c3ccccc23)C(=O)N[C@@H](CO)C(=O)N[C@@H](Cc2cn(C)c3ccccc23)C(=O)N1C [Example 1505] ({CH2CO}-Y[Pip]DPHE[Hyp]WS[Trp(1-Me)][NMeNle][NMeNle]ECG-NH2; thioether N-14)
1 to 9.9 nM | CCCC[C@H]1C(=O)N(C)[C@@H](CCCC)C(=O)N[C@@H](C)C(=O)N[C@H](C(=O)NCC(N)=O)CSCC(=O)N[C@@H](Cc2ccc(O)cc2)C(=O)N2CC(C)(C)OC[C@H]2C(=O)N[C@@H](CC(N)=O)C(=O)N2CCC[C@H]2C(=O)N[C@@H](CN)C(=O)N[C@@H](CCC(N)=O)C(=O)N2C[C@H](O)C[C@H]2C(=O)N[C@@H](Cc2c[nH]c3ccccc23)C(=O)N[C@@H](CO)C(=O)N[C@@H](Cc2c[nH]c3ccccc23)C(=O)N1C [Example 1281] ({CH2CO}-Y[Morpholine(3S-CO,6,6-Me2)]NP[Dap]Q[Hyp]WSW[NMeNle][NMeNle]ACG-NH2; thioether N-14)

Reference: patent US10538555B2, “Macrocyclic inhibitors of the PD-1/PD-L1 and CD80(B7-1)/PD-L1 protein/protein interactions” (BRISTOL-MYERS SQUIBB COMPANY, priority 2014, dated 2020)
